pEC50: −log10 of the molar value.
Legend:
[1] = target: T1, GST tagged LXRbeta LBD (ligand binding domain) (Homo sapiens, UniProt P55055); test: LanthaScreen TR-FRET Liver X Receptor Coactivator Assay, LXR beta-LBD (co-activator recruitment; IP and % Emax relative to T0901317); format: biochemical; details: for pEC50: Inflection Point of co-activator recruitment, LXR beta-LBD, TR-FRET; for Emax: efficacy at max dose in relation to reference T0901317, LXR beta-LBD, read-out: LXR beta actiivty at max dose (%)
T1 construct: purchased Invitrogen pv4658.pps
T1 sequence (P55055 222-460 limits assumed): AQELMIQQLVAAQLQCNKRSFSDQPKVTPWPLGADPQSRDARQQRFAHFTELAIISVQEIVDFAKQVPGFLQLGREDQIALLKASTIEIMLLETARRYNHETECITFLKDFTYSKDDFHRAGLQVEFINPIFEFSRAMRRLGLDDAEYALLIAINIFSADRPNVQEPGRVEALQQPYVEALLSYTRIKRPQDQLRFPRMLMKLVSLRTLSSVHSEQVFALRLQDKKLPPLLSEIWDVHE
How it was run: (§1)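 TR-FRET coactivator recruitment; LBD + cpd, then fluorescein coactivator peptide/Tb anti-GST Ab mix; RT incubation; IP and Emax vs T0901317.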

[2] = target: T2, GST tagged LXRalpha LBD (ligand binding domain) (Homo sapiens, UniProt Q13133); test: LanthaScreen TR-FRET Liver X Receptor Coactivator Assay, LXR alpha-LBD (co-activator recruitment; IP and % Emax relative to T0901317); format: biochemical; details: for LXR alpha IP (nM) / pEC50: Inflection Point of co-activator recruitment, LXR alpha-LBD, TR-FRET; for Emax: efficacy at max dose in relation to reference T0901317, LXR alpha-LBD, read-out: LXR alpha actiivty at max dose (%)
T2 construct: purchased Invitrogen pv4655
T2 sequence (Q13133 209-447 limits assumed): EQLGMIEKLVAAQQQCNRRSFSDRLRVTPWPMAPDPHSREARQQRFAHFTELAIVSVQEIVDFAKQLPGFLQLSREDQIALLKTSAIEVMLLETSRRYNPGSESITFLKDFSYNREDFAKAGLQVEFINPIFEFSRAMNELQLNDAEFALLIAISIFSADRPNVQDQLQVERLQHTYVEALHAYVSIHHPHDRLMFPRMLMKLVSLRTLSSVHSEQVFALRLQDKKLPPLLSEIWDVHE
How it was run: as §1

Row | SMILES | pEC50 [1] | Emax [1] | LXR alpha IP (nM) [2] | Emax [2] | pEC50 [2]
1 | COc1cccc(C2(C(=O)N(C)CCCC3CCN(c4ccc(C(=O)N(C)C)c(Cl)n4)CC3)CCOCC2)c1 [Example 1-44, 2-chloro-6-(4-(3-(4-(3-methoxyphenyl)-N-methyltetrahydro-2H-pyran-4-carboxamido)propyl)piperidin-1-yl)-N,N-dimethylnicotinamide] | 6.09 | 39% | No IP | 0% | 
2 | CN(C)C(=O)c1ccc(N2CCC(CCCN(C)C(=O)C(O)(c3cccc(O)c3)C(F)(F)F)CC2)nc1Cl (centres unmarked) [Example 1-45, 2-chloro-N,N-dimethyl-6-(4-(3-(3,3,3-trifluoro-2-hydroxy-2-(3-hydroxyphenyl)-N-methylpropanamido)propyl)piperidin-1-yl)nicotinamide] | 7.35 | 82% |  | 32% | 5.60
3 | COc1cccc([C@]2(C(=O)N(C)CCCC3CCN(c4ccc(C(=O)N(C)C)c(Cl)n4)CC3)CCCO2)c1 [Example 1-46, (S)-2-chloro-6-(4-(3-(2-(3-methoxyphenyl)-N-methyltetrahydrofuran-2-carboxamido)propyl)piperidin-1-yl)-N,N-dimethylnicotinamide] | 6.39 | 37% | No IP | 0% | 
4 | COc1cccc([C@@]2(C(=O)N(C)CCCC3CCN(c4ccc(C(=O)N(C)C)c(Cl)n4)CC3)CCCO2)c1 [Example 1-47, (R)-2-chloro-6-(4-(3-(2-(3-methoxyphenyl)-N-methyltetrahydrofuran-2-carboxamido)propyl)piperidin-1-yl)-N,N-dimethylnicotinamide] | 7.00 | 56% | No IP | 11% | 
5 | CN(C)C(=O)c1ccc(N2CCC(CCCN(C)C(=O)[C@@](O)(c3cccc(C(F)(F)F)c3)C(F)(F)F)CC2)nc1Cl [Example 1-48, (S)-2-chloro-N,N-dimethyl-6-(4-(3-(3,3,3-trifluoro-2-hydroxy-N-methyl-2-(3-(trifluoromethyl)phenyl)pro-panamido)propyl)piperidin-1-yl)nicotinamide] | 6.48 | 43% | No IP | 2% | 
6 | CN(C)C(=O)c1ccc(N2CCC(CCCN(C)C(=O)[C@](O)(c3cccc(C(F)(F)F)c3)C(F)(F)F)CC2)nc1Cl [Example 1-49, (R)-2-chloro-N,N-dimethyl-6-(4-(3-(3,3,3-trifluoro-2-hydroxy-N-methyl-2-(3-(trifluoromethyl)phenyl)pro-panamido)propyl)piperidin-1-yl)nicotinamide] | 7.27 | 50% | No IP | 0% | 
7 | CN(C)C(=O)c1ccc(N2CCC(CCCN(C)C(=O)[C@@](O)(c3cccc(OC(F)F)c3)C(F)(F)F)CC2)nc1Cl [Example 1-50, (S)-2-chloro-6-(4-(3-(2-(3-(difluoromethoxy)phenyl)-3,3,3-trifluoro-2-hydroxy-N-methyl-propanamido)propyl)piperidin-1-yl)-N,N-dimethylnicotinamide] | 7.21 | 63% | No IP | 18% | 
8 | CN(C)C(=O)c1ccc(N2CCC(CCCN(C)C(=O)[C@](O)(c3cccc(OC(F)F)c3)C(F)(F)F)CC2)nc1Cl [Example 1-51, (R)-2-chloro-6-(4-(3-(2-(3-(difluoromethoxy)phenyl)-3,3,3-trifluoro-2-hydroxy-N-methyl-propanamido)propyl)piperidin-1-yl)-N,N-dimethylnicotinamide] | 6.26 | 55% |  | 23% | 5.26
9 | CN(C)C(=O)c1ccc(N2CCC(CCCN(C)C(=O)C(O)C(F)(F)F)CC2)nc1Cl (centres unmarked) [Example 1-52, 2-chloro-N,N-dimethyl-6-(4-(3-(3,3,3-trifluoro-2-hydroxy-N-methylpropanamido)propyl)piperidin-1-yl)nicotinamide] | 5.30 | 46% | No IP | 11% | 
10 | COc1cccc([C@@](O)(C(=O)N(C)CCCC2CCN(c3ccc(C(=O)N(C)C)c(Cl)n3)CC2)C(F)F)c1 [Example 1-53, (R)-2-chloro-6-(4-(3-(3,3-difluoro-2-hydroxy-2-(3-methoxyphenyl)-N-methylpropanamido)propyl)piperidin-1-yl)-N,N-dimethylnicotinamide] | 6.24 | 43% | No IP | 0% | 
11 | CN(C)C(=O)c1ccc(N2CCC(CCCN(C)C(=O)[C@]3(c4ccccc4)CCOC3)CC2)nc1Cl [Example 1-54, (S)-2-chloro-N,N-dimethyl-6-(4-(3-(N-methyl-3-phenyltetrahydrofuran-3-carboxamido)propyl)piperidin-1-yl)nicotinamide] | 6.24 | 49% | No IP | 15% | 
12 | CN(C)C(=O)c1ccc(N2CCC(CCCN(C)C(=O)[C@@]3(c4ccccc4)CCOC3)CC2)nc1Cl [Example 1-55, (R)-2-chloro-N,N-dimethyl-6-(4-(3-(N-methyl-3-phenyltetrahydrofuran-3-carboxamido)propyl)piperidin-1-yl)nicotinamide] | 6.07 | 48% | No IP | 16% | 

Now from value to molecule:

Row | pEC50 [1] | Emax [1] | LXR alpha IP (nM) [2] | Emax [2] | pEC50 [2] | SMILES
13 | 6.77 | 80% |  | 43% | 5.58 | CN(C)C(=O)c1ccc(N2CCC(CCCN(C)C(=O)C3(C(F)(F)F)CCCO3)CC2)nc1Cl (centres unmarked) [Example 1-56, 2-chloro-N,N-dimethyl-6-(4-(3-(N-methyl-2-(trifluoromethyl)tetrahydrofuran-2-carboxamido)propyl)piperidin-1-yl)nicotinamide]
14 | 6.57 | 48% | No IP | 0% |  | CN[C@@](C(=O)N(C)CCCC1CCN(c2ccc(C(=O)N(C)C)c(Cl)n2)CC1)(c1cccc(OC)c1)C(F)(F)F [Example 1-57, (R)-2-chloro-N,N-dimethyl-6-(4-(3-(3,3,3-trifluoro-2-(3-methoxyphenyl)-N-methyl-2-(methylamino)propanamido)propyl)piperidin-1-yl)nicotinamide]
15 | 7.43 | 86% |  | 37% | 5.56 | CN(C)C(=O)c1ccc(N2CCC(CCCN(C)C(=O)[C@](O)(c3cccc(O)c3)C(F)(F)F)CC2)nc1Cl [Example 1-58, (R)-2-chloro-N,N-dimethyl-6-(4-(3-(3,3,3-trifluoro-2-hdyroxy-2-(3-hydroxyphenyl)-N-methylpropanamido)propyl)piperidin-1-yl)nicotinamide]
16 | 6.93 | 80% |  | 24% | 5.54 | COc1ccccc1[C@]1(C(=O)N(C)CCCC2CCN(c3ccc(C(=O)N(C)C)c(Cl)n3)CC2)CCCO1 [Example 1-59, (S)-2-chloro-6-(4-(3-(2-(2-methoxyphenyl)-N-methyltetrahydrofuran-2-carboxamido)propyl)piperidin-1-yl)-N,N-dimethylnicotinamide]
17 | 7.22 | 93% |  | 33% | 5.84 | COc1ccccc1[C@@]1(C(=O)N(C)CCCC2CCN(c3ccc(C(=O)N(C)C)c(Cl)n3)CC2)CCCO1 [Example 1-60, (R)-2-chloro-6-(4-(3-(2-(2-methoxyphenyl)-N-methyltetrahydrofuran-2-carboxamido)propyl)piperidin-1-yl)-N,N-dimethylnicotinamide]
18 | 5.86 | 23% | No IP | 0% |  | CC(C)=C(C(=O)N(C)CCCC1CCN(c2ccc(C(=O)N(C)C)c(Cl)n2)CC1)c1ccccc1 [Example 1-61, 2-chloro-6-(4-(3-(N,3-dimethyl-2-phenylbut-2-enamido)propyl)piperidin-1-yl)-N,N-dimethylnicotinamide]
19 | 6.16 | 28% | No IP | 0% |  | CN(C)C(=O)c1ccc(N2CCC(CCCN(C)C(=O)[C@]3(c4cccc(Cl)c4)CCCO3)CC2)nc1Cl [Example 1-62, (R)-2-chloro-6-(4-(3-(2-(3-chlorophenyl)-N-methyltetrahydrofuran-2-carboxamido)propyl)piperidin-1-yl)-N,N-dimethylnicotinamide]
20 | 6.43 | 40% | No IP | 0% |  | CN(C)C(=O)c1ccc(N2CCC(CCCN(C)C(=O)[C@@]3(c4cccc(Cl)c4)CCCO3)CC2)nc1Cl [Example 1-63, (S)-2-chloro-6-(4-(3-(2-(3-chlorophenyl)-N-methyltetrahydrofuran-2-carboxamido)propyl)piperidin-1-y)-N,N-dimethylnicotinamide]

Reference: patent US10961215B2, “N-aryl and N-heteroaryl piperidine derivatives as liver X receptor beta agonists, compositions, and their use” (Merck Sharp & Dohme Corp., priority 2016, dated 2021)
